Assay results reported in US11771738B2 (Zoetis Services LLC, priority 2018, dated 2023).
Marks after values point to notes of the source that are not given here.

These compounds were tested on third stage larvae of Haemonchus contortus (assay: Haemonchus contortus, Larvae Stage 3 (HcL3) In Vitro Assay). Details: Haemonchus contortus third stage larvae in vitro; class mark appended to the Ex # in Table 3.
Type: cell-based

| SMILES | HcL3 MED |
| --- | --- |
| CC(C)C[C@H]1C(=O)O[C@H](Cc2ccc(Cc3ccnn3C(C)C)cc2)C(=O)N(C)[C@@H](CC(C)C)C(=O)O[C@H](C)C(=O)N(C)[C@@H](CC(C)C)C(=O)O[C@H](Cc2ccc(Cc3ccnn3C(C)C)cc2)C(=O)N(C)[C@@H](CC(C)C)C(=O)O[C@H](C)C(=O)N1C [Example 3-305] | 3-305* (Examples with an asterisk (*) have HcL3 MED values≤1 μM) |
| CC(C)C[C@H]1C(=O)O[C@H](Cc2ccc(Cc3cnccc3C3CC3)cc2)C(=O)N(C)[C@@H](CC(C)C)C(=O)O[C@H](C)C(=O)N(C)[C@@H](CC(C)C)C(=O)O[C@H](Cc2ccc(Cc3cnccc3C3CC3)cc2)C(=O)N(C)[C@@H](CC(C)C)C(=O)O[C@H](C)C(=O)N1C [Example 3-306] | 3-306* (Examples with an asterisk (*) have HcL3 MED values≤1 μM) |
| COc1cc(Cc2ccc(C[C@H]3OC(=O)[C@H](CC(C)C)N(C)C(=O)[C@@H](C)OC(=O)[C@H](CC(C)C)N(C)C(=O)[C@@H](Cc4ccc(Cc5ccnc(OC)c5)cc4)OC(=O)[C@H](CC(C)C)N(C)C(=O)[C@@H](C)OC(=O)[C@H](CC(C)C)N(C)C3=O)cc2)ccn1 [Example 3-192] | 3-192^ (Examples with a carrot (^) have HcL3 MED values>1 and ≤3.3 μM) |
| Cc1nc(Cc2ccc(C[C@H]3OC(=O)[C@H](CC(C)C)N(C)C(=O)[C@@H](C)OC(=O)[C@H](CC(C)C)N(C)C(=O)[C@@H](Cc4ccc(Cc5nc(C)oc5C)cc4)OC(=O)[C@H](CC(C)C)N(C)C(=O)[C@@H](C)OC(=O)[C@H](CC(C)C)N(C)C3=O)cc2)c(C)o1 [Example 3-81] | 3-81^ (Examples with a carrot (^) have HcL3 MED values>1 and ≤3.3 μM) |
| CCCn1nccc1Cc1ccc(C[C@H]2OC(=O)[C@H](CC(C)C)N(C)C(=O)[C@@H](C)OC(=O)[C@H](CC(C)C)N(C)C(=O)[C@@H](Cc3ccc(Cc4ccnn4CCC)cc3)OC(=O)[C@H](CC(C)C)N(C)C(=O)[C@@H](C)OC(=O)[C@H](CC(C)C)N(C)C2=O)cc1 [Example 3-303] | 3-303* (Examples with an asterisk (*) have HcL3 MED values≤1 μM) |
| CC(C)C[C@H]1C(=O)O[C@H](Cc2ccc(Cc3ncccn3)cc2)C(=O)N(C)[C@@H](CC(C)C)C(=O)O[C@H](C)C(=O)N(C)[C@@H](CC(C)C)C(=O)O[C@H](Cc2ccc(Cc3ncccn3)cc2)C(=O)N(C)[C@@H](CC(C)C)C(=O)O[C@H](C)C(=O)N1C [Example 3-73] | 3-73* (Examples with an asterisk (*) have HcL3 MED values≤1 μM) |
| Cc1nc(C)c(Cc2ccc(C[C@H]3OC(=O)[C@H](CC(C)C)N(C)C(=O)[C@@H](C)OC(=O)[C@H](CC(C)C)N(C)C(=O)[C@@H](Cc4ccc(Cc5sc(C)nc5C)cc4)OC(=O)[C@H](CC(C)C)N(C)C(=O)[C@@H](C)OC(=O)[C@H](CC(C)C)N(C)C3=O)cc2)s1 [Example 3-52] | 3-52* (Examples with an asterisk (*) have HcL3 MED values≤1 μM) |

Same assay, conditions: approximately 96 hours incubation; multiple-resistant field isolate

| SMILES | HcL3 MED (symbol after Ex#) |
| --- | --- |
| CC(C)C[C@H]1C(=O)O[C@H](Cc2ccc(C(O)c3sccc3Cl)cc2)C(=O)N(C)[C@@H](CC(C)C)C(=O)O[C@H](C)C(=O)N(C)[C@@H](CC(C)C)C(=O)O[C@H](Cc2ccccc2)C(=O)N(C)[C@@H](CC(C)C)C(=O)O[C@H](C)C(=O)N1C (stereo partly shown) [Example 4-77] | 4-77^ (Examples with a carrot (^) have HcL3 MED values>1 and ≤3.3 μM) |
| Cc1csc(Cc2ccc(C[C@H]3OC(=O)[C@H](CC(C)C)N(C)C(=O)[C@@H](C)OC(=O)[C@H](CC(C)C)N(C)C(=O)[C@@H](Cc4ccccc4)OC(=O)[C@H](CC(C)C)N(C)C(=O)[C@@H](C)OC(=O)[C@H](CC(C)C)N(C)C3=O)cc2)n1 [Example 4-90] | 4-90^ (Examples with a carrot (^) have HcL3 MED values>1 and ≤3.3 μM) |
| COc1cc(F)ccc1Cc1ccc(C[C@H]2OC(=O)[C@H](CC(C)C)N(C)C(=O)[C@@H](C)OC(=O)[C@H](CC(C)C)N(C)C(=O)[C@@H](Cc3ccccc3)OC(=O)[C@H](CC(C)C)N(C)C(=O)[C@@H](C)OC(=O)[C@H](CC(C)C)N(C)C2=O)cc1 [Example 2-9] | 2-9* (Examples with an asterisk (*) have HcL3 MED values≤1 μM) |
